Data: EPA's ToxRefDB 2

Assays:
rabbit = conditions: Prenatal developmental toxicity study; new zealand white; Oral; Gavage/Intubation; dose end: 19 GD; group: maternal; systemic / in life observation / body weight / body weight + systemic / in life observation / clinical signs / [other] + systemic / in life …
rat [1] = conditions: Chronic toxicity; sprague dawley; Oral; Feed; dose end: 78 week; group: systemic; systemic / clinical chemistry / glucose / glucose + systemic / in life observation / body weight / body weight gain + systemic / in life …
rat [2] = conditions: Carcinogenicity; sprague dawley; Oral; Feed; dose end: 104 week; group: systemic; systemic / clinical chemistry / glucose / glucose + systemic / in life observation / body weight / body weight gain + systemic / in life …
mouse = conditions: Developmental neurotoxicity study; other; Oral; [Not Specified]; dose end: 90 PND; group: cannot be grouped; systemic / in life observation / body weight / offspring (pup) weight gain + systemic / in life observation / clinical signs / convulsions
rat [3] = conditions: Developmental neurotoxicity study; wistar; Injection; Subcutaneous; dose end: 42 PND; group: cannot be grouped; developmental / developmental malformation / general / crown-rump length + developmental / offspring survival late / [other] / [other] + …
rat [4] = conditions: Developmental neurotoxicity study; wistar; Oral; Water; dose end: 60 PND; group: cannot be grouped; systemic / in life observation / body weight / offspring (pup) weight
rat [5] = conditions: Developmental neurotoxicity study; wistar; Injection; Subcutaneous; dose end: 68 PND; group: cannot be grouped; developmental / offspring survival late / [other] / [other] + systemic / hematology / leukocyte (wbc) count differential / leukocyte (wbc…

OC[C@H]1O[C@H](O[C@]2(CCl)O[C@H](CCl)[C@@H](O)[C@@H]2O)[C@H](O)[C@@H](O)[C@H]1Cl [Sucralose]
LEL (rabbit): 700 mg/kg/day | LOAEL (rabbit): > 700 mg/kg/day | NEL (rabbit): 350 mg/kg/day | NOAEL (rabbit): ≥ 700 mg/kg/day | LEL (rat [1]): 150 mg/kg/day | LOAEL (rat [1]): > 15000 mg/kg/day | NEL (rat [1]): < 150 mg/kg/day | NOAEL (rat [1]): ≥ 15000 mg/kg/day | LEL (rat [2]): 150 mg/kg/day | NEL (rat [2]): < 150 mg/kg/day | NOAEL (rat [2]): ≥ 15000 mg/kg/day

N[C@@H](CCC(=O)O)C(=O)[O-].[Na+] [Sodium l-glutamate]
LEL (mouse): 2.5 mg/kg/day | LOAEL (mouse): > 4 mg/kg/day | NEL (mouse): < 2.5 mg/kg/day | NOAEL (mouse): ≥ 4 mg/kg/day | LEL (rat [3]): 0.004 mg/kg/day | LOAEL (rat [3]): > 0.004 mg/kg/day | NEL (rat [3]): < 0.004 mg/kg/day | NOAEL (rat [3]): ≥ 0.004 mg/kg/day | LEL (rat [4]): 10000 mg/kg/day | NEL (rat [4]): < 10000 mg/kg/day | NOAEL (rat [4]): ≥ 10000 mg/kg/day | LOAEL (rat [5]): > 4000 mg/kg/day | NEL (rat [5]): < 4000 mg/kg/day | NOAEL (rat [5]): ≥ 4000 mg/kg/day
